The record followed here is patent US8357635B2, “Microbiocides” (Syngenta Crop Protection LLC, priority 2009, dated 2013).

Values joined by “and” are separate entries in the source; they are usually repeats but may differ in a detail not shown here. Identical values can stand only once.

One data set concerns Botrytis cinerea. Put plainly: Action against Botrytis cinerea - fungal growth assay. It counts as cell-based. To be noted: 0.002% active ingredient, PDB broth, 24° C., photometric after 3-4 days. Here is the method: (§1) Conidia of the fungus from cryogenic storage was directly mixed into nutrient broth (PDB potato dextrose broth). After placing a (DMSO) solution of the test compounds (0.002% active ingredient) into a microtiter plate (96-well format) the nutrient broth containing the fungal spores was added. The test plates were incubated at 24° C. and the inhibition of growth was measured photometrically after 3-4 days. The activity of a compound was expressed as fungal growth inhibition (0=no growth inhibition, ratings of 80% to 99% mean good to very good inhibition, 100%=complete inhibition).

The subject of data set [1] is Erysiphe graminis f.sp. tritici. Put plainly: Action against Erysiphe graminis f.sp. tritici (wheat powdery mildew), wheat leaf segments. It counts as in vivo. Particulars: Blumeria graminis, foliar, 168 h; 0.02% active ingredient sprayed on wheat leaf segments, assessed 7 days after inoculation; read-out: preventive fungicidal activity (inhibition). As to the method:
Wheat leaf segments were placed on agar in multiwell plates (24-well format) and sprayed with test solutions (0.02% active ingredient). After drying, the leaf disks were inoculated with a spore suspension of the fungus. After appropriate incubation the activity of a compound was assessed 7 days after inoculation as preventive fungicidal activity.

In data set [2] the test system is Puccinia recondita. Description: Protective action against Puccinia recondita (brown rust) on wheat leaf segments. The format is in vivo. Particulars: foliar, 192 h, 0.02% active ingredient sprayed on wheat leaf segments, assessed 8 days after inoculation, read-out: preventive fungicidal activity (inhibition). As to the method: Wheat leaf segments were placed on agar in multiwell plates (24-well format) and sprayed with test solutions (0.02% active ingredient). After drying, the leaf disks were inoculated with a spore suspension of the fungus. After appropriate incubation the activity of a compound was assessed 8 days after inoculation as preventive fungicidal activity.

Data set [3] deals with Mycosphaerella arachidis (Cercospora arachidicola). Put plainly: Action against Mycosphaerella arachidis (early leaf spot of groundnut) - fungal growth assay. It counts as cell-based. Particulars: 0.002% active ingredient, PDB broth, 24° C., photometric after 6-7 days. Here is the method: Conidia of the fungus from cryogenic storage were directly mixed into nutrient broth (PDB potato dextrose broth). After placing a (DMSO) solution of the test compounds (0.002% active ingredient) into a microtiter plate (96-well format) the nutrient broth containing the fungal spores was added. The test plates were incubated at 24° C. and the inhibition of growth was measured photometrically after 6-7 days. The activity of a compound was expressed as fungal growth inhibition (0=no growth inhibition, ratings of 80% to 99% mean good to very good inhibition, 100%=complete inhibition).

Data set [4] deals with Monographella nivalis (Fusarium nivale, Microdochium nivale). Put plainly: Action against Monographella nivalis (snow mould) - fungal growth assay. It counts as cell-based. To be noted: 0.002% active ingredient, PDB broth, 24° C., photometric after 72 hrs. Here is the method: Conidia of the fungus from cryogenic storage were directly mixed into nutrient broth (PDB potato dextrose broth). After placing a DMSO-solution of the test compounds (0.002% active ingredient) into a microtiter plate (96-well format) the nutrient broth containing the fungal spores was added. The test plates were incubated at 24° C. and the inhibition of growth was measured photometrically after 72 hrs (0=no growth inhibition, ratings of 80% to 99% mean good to very good inhibition, 100%=complete inhibition).

Another data set deals with Septoria tritici. Description: Action against Septoria tritici - fungal growth assay. It counts as cell-based. Particulars: Zymoseptoria tritici; 0.002% active ingredient, PDB broth, 24° C., photometric after 72 hrs. As to the method: Conidia of the fungus from cryogenic storage were directly mixed into nutrient broth (PDB potato dextrose broth). After placing a (DMSO) solution of the test compounds (0.002% active ingredient) into a microtiter plate (96-well format) the nutrient broth containing the fungal spores was added. The test plates were incubated at 24° C. and the inhibition of growth was determined photometrically after 72 hrs. The activity of a compound was expressed as fungal growth inhibition (0=no growth inhibition, ratings of 80% to 99% mean good to very good inhibition, 100%=complete inhibition).

The next data set concerns Pyrenophora teres. Description: Action against Pyrenophora teres (net blotch) on barley leaf segments. Particulars: foliar, 96 h, 0.02% active ingredient sprayed on barley leaf segments, assessed 4 days after inoculation, read-out: preventive fungicidal activity (inhibition). The format is in vivo. Here is the method: Barley leaf segments were placed on agar in multiwell plates (24-well format) and sprayed with test solutions (0.02% active ingredient). After drying, the leaf disks were inoculated with a spore suspension of the fungus. After appropriate incubation the activity of a compound was assessed 4 days after inoculation as preventive fungicidal activity.

The subject of data set [5] is Puccinia recondita. Put plainly: Curative action against Puccinia recondita (brown rust) on wheat leaf segments. The format is in vivo. To be noted: foliar, 0.02% active ingredient sprayed one day after inoculation on wheat leaf segments, assessed 8 days after inoculation, read-out: curative fungicidal activity (inhibition). As to the method: Wheat leaf segments were placed on agar in multiwell plates (24-well format) and inoculated with a spore suspension of the fungus. One day after inoculation the leaf segments were sprayed with test solutions (0.02% active ingredient). After appropriate incubation the activity of a compound was assessed 8 days after inoculation as curative fungicidal activity.

A further data set deals with Rhizoctonia solani. Put plainly: Action against Rhizoctonia solani - fungal growth assay. The format is cell-based. Particulars: 0.002% active ingredient, PDB broth, 24° C., photometric after 3-4 days. As to the method: as §1, with “Mycelial fragments of a newly grown liquid culture” for “Conidia”, “were” for “from cryogenic storage was”

By inhibition is commonly meant the drop in the measured response relative to a control, in per cent. As to `CON(C(=O)c1cn(C)nc1C(F)F)C(C)C1CC1c1ccccc1Cl` (stereo not drawn) [Compound 1.011A, trans 3-difluoromethyl-1-methyl-1H-pyrazole-4-carboxylic acid {1-[2-(2-chloro-phenyl)-cyclopropyl]-ethyl}-methoxy-amide], the inhibition at 0.002 % strength (with Botrytis cinerea; in data set [3]; in [4]; in the data set with Septoria tritici) was no less than 80% each time. Further, the inhibition at 0.02 % strength (in [1]; in the data set on Puccinia recondita [2]; with Pyrenophora teres) was no less than 80% each time.

As usually defined, the melting point is the temperature of the solid-liquid transition. `CON(C(=O)c1cn(C)nc1C(F)F)C(C)C1CC1c1ccc(Cl)cc1Cl` (single isomer, unassigned) [Compound 1.018B, trans-3-difluoromethyl-1-methyl-1H-pyrazole-4-carboxylic acid {1-[2-(2,4-dichlorophenyl)-cyclopropyl]-ethyl}-methoxy-amide] had a melting point of 142 to 144 °C.

For the compound `CON(C(=O)c1cn(C)nc1C(F)F)C(C)C1CC1c1c(Cl)cc(Cl)cc1Cl` (stereo not drawn) [Compound 1.034, trans-3-difluoromethyl-1-methyl-1H-pyrazole-4-carboxylic acid {1-[2-(2,4,6-trichlorophenyl)-cyclopropyl]-ethyl}-methoxy-amide], the inhibition at 0.002 % strength (in the data set on Botrytis cinerea; in the data set with Rhizoctonia solani; in [3]; in data set [4]; in the data set on Septoria tritici) was no less than 80% throughout. Also, the inhibition at 0.02 % strength (in data set [1]; in the data set on Puccinia recondita [5]; in the data set with Puccinia recondita [2]; with Pyrenophora teres) was no less than 80% each time.

Take `CON(C(=O)c1cn(C)nc1C(F)F)C(C)C1CC1c1ccc(Cl)cc1Cl` (stereo not drawn) [Compound 1.018B, trans-3-difluoromethyl-1-methyl-1H-pyrazole-4-carboxylic acid {1-[2-(2,4-dichlorophenyl)-cyclopropyl]-ethyl}-methoxy-amide]: in the data set on Puccinia recondita [5], the inhibition at 0.02 % strength was no less than 80%.

On to `CON(C(=O)c1cn(C)nc1C(F)F)C(C)C1CC1c1c(F)cccc1Cl` (stereo not drawn) [Compound 1.027, trans 3-difluoromethyl-1-methyl-1H-pyrazole-4-carboxylic acid{1-[2-(2-chloro-6-fluoro-phenyl)-cyclopropyl]-ethyl}-methoxy-amide], for which the inhibition at 0.002 % strength (with Botrytis cinerea; in data set [3]; in data set [4]; with Septoria tritici) was no less than 80% each time. Further, the inhibition at 0.02 % strength (in data set [1]; with Puccinia recondita [5]; with Puccinia recondita [2]; with Pyrenophora teres) was no less than 80% throughout.

Regarding `CON(C(=O)c1cn(C)nc1C(F)F)C(C)C1CC1c1ccc(Cl)cc1Cl` (single isomer, unassigned) [Compound 1.018A, trans-3-difluoromethyl-1-methyl-1H-pyrazole-4-carboxylic acid {1-[2-(2,4-dichlorophenyl)-cyclopropyl]-ethyl}-methoxy-amide], the melting point lay within 133 to 135 °C.

Consider `CON(C(=O)c1cn(C)nc1C(F)F)C(C)[C@@H]1C[C@H]1c1c(Cl)sc(Cl)c1Cl` (relative stereo) [Compound 1.063, trans 3-Difluoromethyl-1-methyl-1H-pyrazole-4-carboxylic acid methoxy-{1-[2-(2,4,5-trichloro-thiophen-3-yl)-cyclopropyl]-ethyl}-amide], for which the melting point is 110 to 113 °C and 110 to 130 °C.

On to `CON(C(=O)c1cn(C)nc1C(F)F)C(C)C1CC1c1ccc(Cl)cc1Cl` (stereo not drawn) [Compound 1.018A, trans-3-difluoromethyl-1-methyl-1H-pyrazole-4-carboxylic acid {1-[2-(2,4-dichlorophenyl)-cyclopropyl]-ethyl}-methoxy-amide], for which the inhibition at 0.002 % strength (in the data set with Botrytis cinerea; in data set [3]; in [4]; with Septoria tritici) was no less than 80% in each case. In addition, the inhibition at 0.02 % strength (in [1]; in the data set with Puccinia recondita [2]; with Pyrenophora teres) was no less than 80% throughout.

As for `CON(C(=O)c1cn(C)nc1C(F)F)C(C)C1CC1c1c(Cl)cccc1Cl` (stereo not drawn) [Compound 1.028, trans-3-difluoromethyl-1-methyl-1H-pyrazole-4-carboxylic acid {1-[2-(2,6-dichlorophenyl)-cyclopropyl]-ethyl}-methoxy-amide], the inhibition at 0.002 % strength (in the data set on Botrytis cinerea; in the data set with Rhizoctonia solani; in data set [3]; in [4]; with Septoria tritici) was no less than 80% in each case. Besides, the inhibition at 0.02 % strength (in data set [1]; in the data set on Puccinia recondita [5]; in the data set with Puccinia recondita [2]; in the data set on Pyrenophora teres) was no less than 80% throughout.
